Consider two molecules from patent US20250073207A1, “PSILOCIN BENZOATE FORMULATION FOR I[…]” (Eleusis Therapeutics US, Inc., priority 2022, published 2025).

The structures appear in SMILES notation.

The nature of series [1]: Stability in solution of psilocin free base versus benzoate salt. Particulars: prone to oxidation.
Series [2] is described as follows: Solubility testing of psilocin benzoate salt in potential intravenous vehicles.
Protocol: Solubility of the psilocin benzoate salt was assessed in a range of potential intravenous vehicles. […] Each vehicle was degassed by sonication prior to use.
The pH of each formulation was measured and samples for assay analysis from each formulation were taken following preparation and then again following 6 hours bench top storage at ambient temperature.

For `CN(C)CCc1c[nH]c2cccc(O)c12` [Psilocin], in series [1], the stability in solution result is reported as “highly unstable in solution”.

Turning to `CN(C)CCc1c[nH]c2cccc(O)c12.O=C(O)c1ccccc1` [psilocin benzoate], in series [2] (all of the vehicles on test), the “solubility under saturating conditions” value was “partially soluble”. The limit of solubility entry in series [2] (in aqueous solution) is on record as “approximately 4 mg/ml”. In addition, in series [1], the stability in solution result is “more stable”.
